# Like-named read-outs stand apart in the source and are kept apart here.
# How the values were obtained:
# Format in all cases: cell-based
# PPAR Delta = biological target: T1, PPAR Delta (Homo sapiens, UniProt Q03181); test: PathHunter NHR protein interaction / nuclear translocation agonist test, PPAR Delta; details: for EC50: agonist mode, read-out: PPAR Delta EC50; for Emax: read-out: PPAR Delta Maximum Activation Response %
# T1 sequence (Q03181 1-441): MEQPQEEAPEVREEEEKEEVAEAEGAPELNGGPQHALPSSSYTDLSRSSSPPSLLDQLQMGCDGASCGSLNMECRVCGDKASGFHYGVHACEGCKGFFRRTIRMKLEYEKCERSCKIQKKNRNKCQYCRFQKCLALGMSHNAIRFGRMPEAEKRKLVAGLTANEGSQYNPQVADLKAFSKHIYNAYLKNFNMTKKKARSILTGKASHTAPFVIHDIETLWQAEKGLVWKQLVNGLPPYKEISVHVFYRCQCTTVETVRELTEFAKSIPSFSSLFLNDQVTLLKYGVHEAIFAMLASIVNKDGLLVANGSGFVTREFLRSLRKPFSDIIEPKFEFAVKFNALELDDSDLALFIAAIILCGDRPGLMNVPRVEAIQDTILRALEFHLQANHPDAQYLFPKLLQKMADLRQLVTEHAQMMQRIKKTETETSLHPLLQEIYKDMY
# PPAR Gamma = biological target: T2, PPAR Gamma (Homo sapiens, UniProt P37231); test: PathHunter NHR protein interaction / nuclear translocation agonist test, PPAR Gamma; details: for EC50: agonist mode, read-out: PPAR Gamma EC50; for Emax: read-out: PPAR Gamma Maximum Activation Response %
# T2 sequence (P37231 1-505): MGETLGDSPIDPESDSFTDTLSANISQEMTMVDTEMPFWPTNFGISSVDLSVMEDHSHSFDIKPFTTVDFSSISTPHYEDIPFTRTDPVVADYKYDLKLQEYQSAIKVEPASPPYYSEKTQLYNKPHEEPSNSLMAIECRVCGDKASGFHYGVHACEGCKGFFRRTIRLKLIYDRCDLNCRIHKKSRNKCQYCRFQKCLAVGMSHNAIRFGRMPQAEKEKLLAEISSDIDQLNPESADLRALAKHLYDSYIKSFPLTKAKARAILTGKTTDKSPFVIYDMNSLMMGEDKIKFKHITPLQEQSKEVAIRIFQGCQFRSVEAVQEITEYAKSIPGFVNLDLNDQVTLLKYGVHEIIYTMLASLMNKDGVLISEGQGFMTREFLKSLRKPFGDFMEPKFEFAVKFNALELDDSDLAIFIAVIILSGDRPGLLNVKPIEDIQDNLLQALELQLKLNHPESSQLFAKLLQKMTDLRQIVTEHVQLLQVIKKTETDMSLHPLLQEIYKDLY
# PPAR Alpha = biological target: T3, PPAR Alpha (Homo sapiens, UniProt Q07869); test: PathHunter NHR protein interaction / nuclear translocation agonist test, PPAR Alpha; details: for EC50: agonist mode, read-out: PPAR Alpha EC50; for Emax: read-out: PPAR Alpha Maximum Activation Response %
# T3 sequence (Q07869 1-468): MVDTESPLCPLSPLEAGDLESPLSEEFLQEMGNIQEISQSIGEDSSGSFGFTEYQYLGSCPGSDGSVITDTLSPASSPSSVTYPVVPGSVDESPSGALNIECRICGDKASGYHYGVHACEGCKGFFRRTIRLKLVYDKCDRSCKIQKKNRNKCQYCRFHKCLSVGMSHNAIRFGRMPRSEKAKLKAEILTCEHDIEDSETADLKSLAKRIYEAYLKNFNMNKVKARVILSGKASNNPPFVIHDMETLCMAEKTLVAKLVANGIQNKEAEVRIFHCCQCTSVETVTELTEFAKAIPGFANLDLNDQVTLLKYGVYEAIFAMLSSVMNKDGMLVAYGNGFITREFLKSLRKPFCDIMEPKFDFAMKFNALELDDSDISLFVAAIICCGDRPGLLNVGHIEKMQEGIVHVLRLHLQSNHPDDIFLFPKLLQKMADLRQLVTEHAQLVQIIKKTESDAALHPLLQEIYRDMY
# [1] = relative to known PPARδ agonist L-165,041 = 100%
# [2] = relative to known PPARγ agonist Troglitazone = 100%
SMILES,EC50 (PPAR Gamma),EC50 (PPAR Alpha),Emax (PPAR Alpha),Emax (PPAR Delta; [1]),Emax (PPAR Gamma; [2]),EC50 (PPAR Delta),Emax (PPAR Delta),Emax (PPAR Gamma),PPAR Alpha Maximum Activation Response % (PPAR Alpha)
"COC(=O)N1C[C@@H](C(=O)c2ccc(SC)cc2)[C@H](c2cc(C)c(OC(C)(C)C(=O)O)c(C)c2)C1 (single isomer, unassigned) [Compound 5]",> 250 nM,> 250 nM,–,–,–,100 to 150 nM,50 to 80%,< 50%,I (key: 100% ≥ I ≥ 80%; 80% ≥ II ≥ 50%; III < 50%)
"CSc1ccc(C(=O)C2CN(C(=O)Oc3ccc(Cl)cc3)CC2c2cc(C)c(OC(C)(C)C(=O)O)c(C)c2)cc1 (single isomer, unassigned) [Compound 13]",> 250 nM,< 100 nM,50 to 80%,–,–,< 100 nM,50 to 80%,80 to 100%,–
CSc1ccc(C(=O)C2CN(C(=O)Oc3ccc(Br)cc3)CC2c2cc(C)c(OC(C)(C)C(=O)O)c(C)c2)cc1 (stereo not shown) [Compound 46],> 250 nM,< 100 nM,80 to 100%,–,–,< 100 nM,80 to 100%,80 to 100%,–
"CSc1ccc(C(=O)C2CN(C(=O)Oc3ccc(Cl)cc3)CC2c2cc(C)c(OC(C)(C)C(=O)O)c(C)c2)cc1 (single isomer, unassigned) [Compound 14]",> 250 nM,< 100 nM,–,–,–,< 100 nM,–,–,–
Cc1cc(CC[C@H]2CN(C(=O)Oc3ccccc3)C[C@@H]2C(=O)c2ccc(S(C)(=O)=O)cc2)cc(C)c1OC(C)(C)C(=O)O (racemic) [Compound 68],> 250 nM,–,80 to 100%,–,80 to 100%,> 250 nM,80 to 100%,–,–

# Second part, led by results:
EC50 (PPAR Gamma),EC50 (PPAR Alpha),Emax (PPAR Alpha),Emax (PPAR Delta; [1]),Emax (PPAR Gamma; [2]),SMILES,EC50 (PPAR Delta),Emax (PPAR Delta),Emax (PPAR Gamma),PPAR Alpha Maximum Activation Response % (PPAR Alpha)
> 250 nM,> 250 nM,80 to 100%,–,–,"CSc1ccc(C(=O)/C=C/c2cc(C)c(OC(C)(C)C(=O)O)c(C)c2)cc1 [GFT-505, Elafibranor, reference compound]",–,50 to 80%,50 to 80%,–
200 to 250 nM,< 100 nM,80 to 100%,80 to 100%,80 to 100%,"Cc1cc(CCC2CN(C(=O)Oc3ccccc3)CC2C(=O)c2ccc(F)cc2)cc(C)c1OC(C)(C)C(=O)O (single isomer, unassigned) [Compound 63]",< 100 nM,–,–,–
> 250 nM,< 100 nM,80 to 100%,80 to 100%,80 to 100%,"CSc1ccc(C(=O)C2CN(C(=O)Oc3ccccc3)CC2CCc2ccc(OC(C)(C)C(=O)O)cc2)cc1 (single isomer, unassigned) [Compound 80]",150 to 200 nM,–,–,–
150 to 200 nM,< 100 nM,80 to 100%,80 to 100%,80 to 100%,"Cc1cc(CCC2CN(C(=O)Oc3ccccc3)CC2C(=O)c2ccc(Cl)s2)cc(C)c1OC(C)(C)C(=O)O (single isomer, unassigned) [Compound 47]",< 100 nM,–,–,–
150 to 200 nM,< 100 nM,80 to 100%,80 to 100%,80 to 100%,"Cc1cc(CC2CN(C(=O)Oc3ccccc3)CC2C(=O)c2ccc(F)cc2)cc(C)c1OC(C)(C)C(=O)O (single isomer, unassigned) [Compound 69]",< 100 nM,–,–,–
200 to 250 nM,< 100 nM,80 to 100%,80 to 100%,80 to 100%,"CSc1ccc(C(=O)C2CN(C(=O)Oc3ccccc3)CC2CCc2ccc(OC(C)(C)C(=O)O)c(C)c2)cc1 (single isomer, unassigned) [Compound 81]",100 to 150 nM,–,–,–
